In patent publication US20130095059A1, “INHALED NO DONOR KMUPS DERIVATIVE PREVENTING ALLERGIC PULMONARY VASCULAR AND BRONCHIAL INFLAMMATION VIA SUPPRESSED CYTOKINES, INOS AND INFLAMMATORY CELL COUNTS IN ASTHMA MODEL” (priority 2007, published 2013):

Columns and labels:
PKG = assay: Ovalbumine model, PKG expression; assay type: in vivo, BALB/c mice; conditions: 28-day experiment; nebulization
Method: (§1) In this long-term experiment, 6-8 week old BALB/c female mice were sensitized on days 1 and 8 by intra-peritoneal injection (i.p.) of ovalbumine (10 μg) (Sigma-Aldrich, Schnelldorf, Germany) adsorbed to 2 mg aluminum hydroxide (AlumInject; Perbio, Erembodegem, Belgium). Mice were divided into three groups. In Group 1, a control group was only exposed to saline nebulization by aerosol. The other 2 groups were subjected to ovalbumine (1%) nebulization. Before each challenge with ovalbumine, mice were either exposed to saline nebulization (Group 2) or KMUP-1 nebulization (5 mM) for 30 min by aerosol (Group 3).
The lung tissues were homogenized, washed with PBS and incubated in lysis buffer in addition to a protease inhibitor cocktail (Sigma, St. Louis, Mo.) to obtain extracts of lung proteins. A Western blot analysis was performed as described previously (Wu B N, et al., 2006). The samples were loaded to 10% SDS-PAGE gels and were separated at 120 V for 90 min. The blots were incubated with anti-eNOS antibody diluted at a ratio of 1:500, anti-sGCα1 antibody diluted at a ratio of 1:2000, anti-PKG antibody diluted at a ratio of 1:500, anti-VCAM-1 antibody diluted at a ratio of 1:500, anti-ICAM-1 antibody diluted at a ratio of 1:500, and anti-MMP-9 antibody diluted at a ratio of 1:600 overnight at 4° C. […]

eNOS = assay: Expression of eNOS in HPAEC; assay type: cell-based, human
Method: HPAEC purchased from ATCC were maintained in humidified incubator containing 5% CO2 at 37° C. HPAEC were cultured in F-12 supplemented with 10% fetal bovine serum. The culture medium was changed every 3 days and cells were subcultured until confluence. HPAEC were harvested with a solution of trypsin-EDTA (GIBCO BRL, NY, USA) while in a logarithmic phase of growth. HPAEC were used between passages 4-8.
To measure the expression of eNOS and 5-HT2B receptor in HPAEC after incubation with KMUP-1 (1-100 μM) for 24 h, whole lysates were collected for Western blotting assay. The relative density was determined using NIH imaging software.

[1] = MCT-induced chronic PAH, mean pulmonary arterial pressure; assay type: in vivo, Wistar rats; conditions: 5 mg/kg/day p.o. and 1 mg/kg/day i.p. for 21 days
Method: (§2) The experiments were performed in adult male Wistar rats (300 to 350 g) in accordance with institutional guidelines after approval by the ethical review committee. PAH development and pulmonary expression of 5-HTT were examined in rats after 60 mg/kg single injection (i.p.) of monocrotaline (MCT). To assess the potential preventive effect of KMUP-1 on MCT-induced PAH and associated proliferation, we assigned rats at random to 2 groups of 8 animals which received KMUP-1 at 5 mg/kg/day p.o or 1 mg/kg/day i.p. All treatments were given once a day for 3 weeks after a single MCT injection (60 mg/kg i.p.) (Abe et al., 2004). On day 21, rats were anesthetized and pulmonary artery blood pressure (MPAP) was recorded as previously described. Lung tissues were dissected for Western blotting and immunohistochemistry.

inflammatory cells = assay: Ovalbumine model, histology of peri-vascular and peri-bronchiolar regions; assay type: in vivo, BALB/c mice; conditions: ovalbumine-exposed mice; nebulization 5 mM 30 min
Method: as §1
Sections of fixed embedded tissues were cut at […], placed on glass slides, deparaffinized and stained sequentially with hematoxylin 2 and eosin-Y (MUTO PURE CHEMICALS CO., LTD., Tokyo, Japan) (Tournoy K G, et al., 2000). To confirm the relationship between vascular inflammation/remodeling and expression of proteins, lung tissue sections from ovalbumine experiments were prepared and stained with hematoxylin-eosin as previously described (Hongo M, et al., 2000). Microphotography analysis of blood vessels and bronchioles, focusing on peri-bronchial and peri-vascular region in the lung sections, was performed using a color digital camera mounted on a computer-interfaced light microscope (Eclipse TE2000-S microscope, Nikon, Tokyo, Japan).

PCNA = assay: PASMCs proliferation (PCNA) in MCT-treated lung tissues; assay type: in vivo, rats; conditions: day 21 after MCT injection
Method: We evaluated proliferating cell nuclear antigen (PCNA) to assess PASMCs proliferation in rats treated with MCT alone or with KMUP-1. Lung tissue sections were de-paraffinized in xylene and then treated with a graded series of alcohol washes, rehydrated in PBS (pH 7.5), and incubated with target retrieval solution (DAKO Co, Tokyo, Japan) in a water bath at 90° C. for 20 min. Endogenous peroxidase activity was blocked with H2O2 in PBS (3%, vol/vol) for 5 min. Slides were then washed in PBS, incubated for 30 min in a protein blocking solution, and incubated for 30 min with anti-PCNA mouse monoclonal antibody (PC-10, 1:200, Dako). Antibodies were washed off, and the slides were processed with an […] LSAB and system horseradish peroxidase detection kit (DAKO Co, Tokyo, Japan). Brown color was generated with a DAB substrate, and nuclei were counter-stained with hematoxylin.

PASMCs = assay: Microculture tetrazolium test (MTT), PASMCs proliferation; assay type: cell-based, Wistar rats; conditions: 1-100 μM; 5-HT 10 μM 24 h
Method: At the end of this period, MTT (2 g/L) was added to each well, and incubation proceeded at 37° C. for 4 h. Thereafter, the medium was removed and the cells were solubilized in 150 μL DMSO.

iNOS = assay: Ovalbumine model, iNOS expression; assay type: in vivo, BALB/c mice; conditions: 28-day experiment; nebulization
5-HTT = 5-HTT expression in pulmonary artery and lung of MCT-treated rats; assay type: in vivo; conditions: 21 days after MCT
Method: as §2
For 5-HTT immunostaining, the lung slides were dewaxed in 100% xylene, and the sections were then rehydrated by successive immersion first in decreasing ethanol concentrations (100%, 90%, 80%, 50% and 30%) and then in water. Endogenous peroxidase activity was blocked using H2O2 in methanol (0.3% vol/vol) for 10 min. After three PBS washes, sections were pre-incubated in PBS supplemented with 3% (wt/vol) BSA for 30 min, then incubated overnight at 4° C. with goat polyclonal anti-5-HTT antibody (Abcam Biotechnology, Cambridge, UK) diluted to 1:1000 in 1×PBS, 0.02% BSA. […]

SMILES: Cn1c(=O)c2c(ncn2CCN2CCN(c3ccccc3Cl)CC2)n(C)c1=O [KMUP-1, 7-[2-[4-(2-chlorophenyl)piperazinyl]ethyl]-1,3-dimethylxanthine]
- decreased PKG expression by ovalbumine sensitization (PKG): significantly reduced
- expression of eNOS compared to 5-HT treatment alone (eNOS; 10 μM, 24 h before adding 5-HT): raised
- eNOS expression in cultured HPAEC (eNOS; 1-100 μM, 24 h): dose-dependently increased
- MCT-induced increases in mean pulmonary arterial pressure (MPAP) [1]: significantly reduced
- inflammatory cells in the peri-vascular and peri-bronchiolar regions (inflammatory cells): marked reductions
- number of PCNA-positive cells in pulmonary artery walls (PCNA): markedly lower
- PASMCs proliferation (MTT assay) (PASMCs): dose-dependently inhibited
- increased iNOS expression by ovalbumine sensitization (iNOS): significantly reduced
- 5-HTT protein expression in lung tissue (Western blotting) (5-HTT): significantly reduced
- 5-HTT expression in pulmonary artery (immunochemistry) (5-HTT; 5 mg/kg p.o. and 1 mg/kg i.p.): significantly decreased
